# Results: PubChem BioAssay AID292 (DTP/NCI, 2004)
# Where “and” joins values, the source holds several entries; their conditions need not be identical. Identical values can stand only once. Toxic doses and inconclusive results are not listed.
# System: B6C3F1 mice, ip Sarcoma M5076, median survival T/C
# Experiment: NCI In Vivo Anticancer Drug Screen. Data for tumor model Sarcoma M5076 (intraperitoneal) in B6C3F1 mice
# Conditions: endpoint: median survival time, higher = longer survival
# How it was run: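 Antitumour effect is judged in tumour-bearing mice by comparing survival after compound dosing against vehicle-only animals, reported as T/C.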
# [1] = dose: 50.0 mg/kg/injection, schedule: Q04DX004 (ip), vehicle: Klucel (hydroxypropylcellulose) (HPC)
# [2] = dose: 100.0 mg/kg/injection, schedule: Q04DX004 (ip), vehicle: Klucel (hydroxypropylcellulose) (HPC)
# [3] = dose: 200.0 mg/kg/injection, schedule: Q04DX004 (ip), vehicle: Klucel (hydroxypropylcellulose) (HPC)
# [4] = dose: 12.5 mg/kg/injection, schedule: Q04DX004 (ip), vehicle: suspension in saline
# [5] = dose: 25.0 mg/kg/injection, schedule: Q04DX004 (ip), vehicle: suspension in saline
# [6] = dose: 50.0 mg/kg/injection, schedule: Q04DX004 (ip), vehicle: suspension in saline
# [7] = dose: 100.0 mg/kg/injection, schedule: Q04DX004 (ip), vehicle: suspension in saline
# [8] = dose: 25.0 mg/kg/injection, schedule: Q04DX004 (ip), vehicle: saline with Tween-80
# [9] = dose: 50.0 mg/kg/injection, schedule: Q04DX004 (ip), vehicle: saline with Tween-80
# [10] = dose: 100.0 mg/kg/injection, schedule: Q04DX004 (ip), vehicle: saline with Tween-80
# [11] = dose: 200.0 mg/kg/injection, schedule: Q04DX004 (ip), vehicle: saline with Tween-80
# [12] = dose: 400.0 mg/kg/injection, schedule: Q04DX004 (ip), vehicle: saline with Tween-80
# [13] = dose: 400.0 mg/kg/injection, schedule: Q04DX004 (ip), vehicle: Klucel (hydroxypropylcellulose) (HPC)
# [14] = dose: 12.5 mg/kg/injection, schedule: Q04DX004 (ip), vehicle: saline
# [15] = dose: 25.0 mg/kg/injection, schedule: Q04DX004 (ip), vehicle: saline
# [16] = dose: 50.0 mg/kg/injection, schedule: Q04DX004 (ip), vehicle: saline
# [17] = dose: 100.0 mg/kg/injection, schedule: Q04DX004 (ip), vehicle: saline
# [18] = dose: 25.0 mg/kg/injection, schedule: Q04DX004 (ip), vehicle: water
# [19] = dose: 50.0 mg/kg/injection, schedule: Q04DX004 (ip), vehicle: water
compound,measurement,setting,value
O=[N+]([O-])O.[Ga],T/C,"dose: 25.0 mg/kg/injection, schedule: Q04DX005 (ip), vehicle: saline",111 % of control
same,T/C,"dose: 50.0 mg/kg/injection, schedule: Q04DX005 (ip), vehicle: saline",115 % of control
same,T/C,"dose: 100.0 mg/kg/injection, schedule: Q04DX005 (ip), vehicle: saline",115 % of control
COc1ccc(-n2cc[n+](C)c2/C=N\O)cc1,T/C,"dose: 31.25 mg/kg/injection, schedule: Q04DX004 (ip), vehicle: saline with Tween-80",101 % of control
same,T/C,"dose: 62.5 mg/kg/injection, schedule: Q04DX004 (ip), vehicle: saline with Tween-80",94 % of control
same,T/C,"dose: 125.0 mg/kg/injection, schedule: Q04DX004 (ip), vehicle: saline with Tween-80",114 % of control
NCCn1c(-c2ccccc2)nc2ccccc2c1=O,T/C,"dose: 25.0 mg/kg/injection, schedule: Q04DX004 (ip), vehicle: Klucel (hydroxypropylcellulose) (HPC)",106 % of control
same,T/C,[1],102 % of control
same,T/C,[2],109 % of control
same,T/C,[3],94 % of control
C=C(C)/C([O-])=N/[N+](C)(C)CC(O)CCCCCCCCCCCC (stereo not given),T/C,[4],97 % of control
same,T/C,[5],95 % of control
same,T/C,[6],100 % of control
same,T/C,[7],92 % of control
Cc1c(-c2ccc(C3CCCCC3)cc2)nc2ccc(F)cc2c1C(=O)O,T/C,[1],114 % of control and 121 % of control
same,T/C,[2],118 % of control and 122 % of control
same,T/C,"dose: 800.0 mg/kg/injection, schedule: Q04DX004 (ip), vehicle: Klucel (hydroxypropylcellulose) (HPC)",152 % of control
O=C1C=CC(=CC=C2C=CN(CCCCCCCCCCCO)C=C2)C=C1,T/C,"dose: 6.25 mg/kg/injection, schedule: Q04DX004 (ip), vehicle: saline with Tween-80",102 % of control
same,T/C,"dose: 12.5 mg/kg/injection, schedule: Q04DX004 (ip), vehicle: saline with Tween-80",109 % of control
same,T/C,[8],102 % of control
same,T/C,[9],111 % of control
Cn1c(=O)c2nncnc2n(C)c1=O,T/C,[9],94 % of control
same,T/C,[10],96 % of control
same,T/C,[11],94 % of control
Clc1nc2cc3c(cc2n2cccc12)oc1ccccc13,T/C,[8],93 % of control
same,T/C,[9],95 % of control
same,T/C,[10],94 % of control
same,T/C,[11],86 % of control
same,T/C,[12],86 % of control
N#CC1C(=O)NC(=O)C(C#N)C1c1ccc(Cl)c(Cl)c1 (stereo not given),T/C,[1],102 % of control
same,T/C,[2],94 % of control
same,T/C,[3],99 % of control
same,T/C,[13],102 % of control
CC1=C(C(N)=O)C(c2ccccc2)NC(=S)N1 (stereo not given),T/C,[1],107 % of control
same,T/C,[2],99 % of control
same,T/C,[3],104 % of control
CNC(=S)SC1=NS(=O)(=O)c2ccccc2N1,T/C,[1],105 % of control
same,T/C,"dose: 62.0 mg/kg/injection, schedule: Q04DX004 (ip), vehicle: Klucel (hydroxypropylcellulose) (HPC)",102 % of control
same,T/C,[2],103 % of control
same,T/C,"dose: 104.0 mg/kg/injection, schedule: Q04DX004 (ip), vehicle: Klucel (hydroxypropylcellulose) (HPC)",103 % of control
same,T/C,"dose: 173.0 mg/kg/injection, schedule: Q04DX004 (ip), vehicle: Klucel (hydroxypropylcellulose) (HPC)",113 % of control
same,T/C,[3],96 % of control
same,T/C,[13],109 % of control
[Cl][Mn][Cl],T/C,[14],96 % of control
same,T/C,[15],100 % of control
same,T/C,[16],124 % of control
same,T/C,[17],111 % of control
CC(C)(C)c1cc2c3c(c1)Oc1cc(C(C)(C)C)cc4c1C3(O)c1c(cc(C(C)(C)C)cc1O4)O2,T/C,"dose: 6.25 mg/kg/injection, schedule: Q04DX004 (ip), vehicle: Klucel (hydroxypropylcellulose) (HPC)",111 % of control
same,T/C,"dose: 9.0 mg/kg/injection, schedule: Q04DX004 (ip), vehicle: Klucel (hydroxypropylcellulose) (HPC)",113 % of control
same,T/C,"dose: 12.5 mg/kg/injection, schedule: Q04DX004 (ip), vehicle: Klucel (hydroxypropylcellulose) (HPC)",113 % of control
CN(C)C(=O)c1cccc(COc2ccc(N3C(N)=NC(N)=NC3(C)C)cc2Cl)c1,T/C,"dose: 6.25 mg/kg/injection, schedule: Q04DX004 (ip), vehicle: suspension in saline",90 % of control
same,T/C,[4],102 % of control
same,T/C,[5],93 % of control
same,T/C,[6],97 % of control
same,T/C,[7],113 % of control
O=C(Nc1ccccc1)c1cc2ccccc2oc1=O,T/C,"dose: 28.13 mg/kg/injection, schedule: Q04DX004 (ip), vehicle: saline with Tween-80",94 % of control
same,T/C,"dose: 56.25 mg/kg/injection, schedule: Q04DX004 (ip), vehicle: saline with Tween-80",92 % of control
Cc1ccc(NN=O)nc1,T/C,"dose: 3.13 mg/kg/injection, schedule: Q04DX004 (ip), vehicle: water",113 % of control
same,T/C,"dose: 6.25 mg/kg/injection, schedule: Q04DX004 (ip), vehicle: water",113 % of control
same,T/C,[18],160 % of control
same,T/C,[19],160 % of control
CCOc1ccc(-c2nc3ccc(-c4nc5ccc(N6CCN(C)CC6)cc5[nH]4)cc3[nH]2)cc1,T/C,"dose: 3.12 mg/kg/injection, schedule: Q04DX004 (ip), vehicle: saline",100 % of control
same,T/C,"dose: 6.25 mg/kg/injection, schedule: Q04DX004 (ip), vehicle: saline",88 % of control
same,T/C,[14],100 % of control
same,T/C,[15],92 % of control
S=c1sc2ccccc2n1CN1CCOCC1,T/C,[8],105 % of control and 107 % of control
same,T/C,[9],95 % of control and 111 % of control
same,T/C,[10],90 % of control and 104 % of control
same,T/C,[11],96 % of control and 97 % of control
COc1ccccc1N=C1SCC(=O)N1Cc1ccco1,T/C,[9],110 % of control
same,T/C,[10],122 % of control
same,T/C,[11],101 % of control
same,T/C,[12],98 % of control
same,T/C,"dose: 800.0 mg/kg/injection, schedule: Q04DX004 (ip), vehicle: saline with Tween-80",102 % of control
O=NNc1ncccn1,T/C,[18],101 % of control
same,T/C,[19],100 % of control
same,T/C,"dose: 100.0 mg/kg/injection, schedule: Q04DX004 (ip), vehicle: water",97 % of control
same,T/C,"dose: 200.0 mg/kg/injection, schedule: Q04DX004 (ip), vehicle: water",100 % of control
same,T/C,"dose: 400.0 mg/kg/injection, schedule: Q04DX004 (ip), vehicle: water",110 % of control
CC(C)c1ccc(C2NC(=S)NC(=O)C2C#N)cc1 (stereo not given),T/C,[16],100 % of control
same,T/C,[17],97 % of control
same,T/C,"dose: 200.0 mg/kg/injection, schedule: Q04DX004 (ip), vehicle: saline",88 % of control
Cc1cn(C2CC(F)C(CO)O2)c(=O)[nH]c1=O (stereo not given),T/C,"dose: 7.5 mg/kg/injection, schedule: Q04DX004 (ip), vehicle: suspension in saline",111 % of control
same,T/C,"dose: 150.0 mg/kg/injection, schedule: Q04DX004 (ip), vehicle: suspension in saline",101 % of control
same,T/C,"dose: 300.0 mg/kg/injection, schedule: Q04DX004 (ip), vehicle: suspension in saline",111 % of control
same,T/C,"dose: 600.0 mg/kg/injection, schedule: Q04DX004 (ip), vehicle: suspension in saline",117 % of control
O=C1C=CC2OC(c3ccccc3)C(O)C2O1 (stereo not given),T/C,"dose: 6.25 mg/kg/injection, schedule: Q04DX004 (ip), vehicle: DMSO",105 % of control
same,T/C,"dose: 12.5 mg/kg/injection, schedule: Q04DX004 (ip), vehicle: DMSO",107 % of control
same,T/C,"dose: 25.0 mg/kg/injection, schedule: Q04DX004 (ip), vehicle: DMSO",112 % of control
same,T/C,"dose: 50.0 mg/kg/injection, schedule: Q04DX004 (ip), vehicle: DMSO",107 % of control
Cc1ccc(C2=CSC3=NCCN23)cc1Cl,T/C,"dose: 3.0 mg/kg/injection, schedule: Q04DX004 (ip), vehicle: saline",103 % of control
same,T/C,"dose: 6.0 mg/kg/injection, schedule: Q04DX004 (ip), vehicle: saline",107 % of control
same,T/C,"dose: 12.0 mg/kg/injection, schedule: Q04DX004 (ip), vehicle: saline",104 % of control
same,T/C,"dose: 24.0 mg/kg/injection, schedule: Q04DX004 (ip), vehicle: saline",100 % of control
same,T/C,[15],104 % of control
same,T/C,[16],96 % of control
Clc1cc2c(nn1)Nc1ccccc1S2,T/C,[9],100 % of control
same,T/C,[10],95 % of control
same,T/C,[11],95 % of control
COc1cc2c(c3c1/c(=N/N(C)C)c1ccccc1n3C)C=CC(C)(C)O2,T/C,[8],110 % of control
same,T/C,[9],105 % of control
same,T/C,[10],110 % of control
same,T/C,[11],110 % of control
Nc1nc2n[nH]nc2c(=O)[nH]1,T/C,[6],118 % of control
same,T/C,"dose: 200.0 mg/kg/injection, schedule: Q04DX004 (ip), vehicle: suspension in saline",123 % of control
